Results as given in patent publication US12044651B2, “Sensor device and methods” (SCENTIAN BIO LIMITED, priority 2016, dated 2024).

Assays:
[1] = CNT-FET control, pristine CNT FET and empty nanodisc functionalized CNT FET (Example 2)
Experimental: In order to carry out the electrical measurements the devices were set up with the PDMS well and source, drain and gate electrodes, via micromanipulators and a Rucker and Kolls probe station, as shown in FIG. 9. Before starting the electrical measurements, 100 μl of PBS buffer (containing 1% DMSO) was added into the testing well. The gate electrode is an Ag/AgCl wire (In Vivo Metric) sheathed in plastic where the exposed area at the end of Ag/AgCl was completely inserted into the PBS buffer to avoid any electrical artefacts that are known to occur when changing the active area of the gate electrode. An Agilent 4156C parameter analyser is used for all electrical measurements^20. The parameter analyser has excellent sensitivity and can accurately measure currents on the femto-amp scale.
During transfer (Vlg−Ids) measurements the gate voltage (Vlg) is swept between −500 mV to +1 V and the source drain voltage (Vds) is set as fixed values (50 mV, 100 mV or 200 mV). For our real time sensing measurement the Vlg is set to 0 and Vds is set as fixed values (50 mV, 100 mV or 200 mV, with a time step of 1 s.
The E-2-hexenal ligand solution is diluted from our 100 mM stock solution, to the concentration ranges required for the sensing experiments. […]

[2] = CNT-FET control covalently functionalized with empty nanodiscs (Example 3); details: empty nanodiscs 1:100 dilution; increasing amounts of ligand
Experimental: The dispersion was sonicated until a clear solution was obtained. The temperature was kept at 25° C. throughout the sonication process. The thiolpyridine solution was prepared by dissolving 10 mg of 2-Mercaptopyridine (99%, Sigma Aldrich) in 1 ml of methanol. The solution was spun coated on a polydimethylsiloxane (PDMS) surface at 2000 rpm for one minute. Before the spin coating process, the PDMS surface was cleaned by a 50 W Oxygen plasma for 1 minute to improve the wettability. The cleaned substrates were placed upside down on the PDMS surface for three minutes and washed in ethanol to remove the excess thiolpyridine molecules. Then the substrates were transferred into the CNT suspension and immersed into the suspension for 10 minutes. The samples were removed from the suspension and dipped into Ethanol for another 10 minutes to remove the thiolpyridine molecules in the SWNT network. The alignment markers were deposited by defining the markers by photolithography and thermal evaporation of 5 nm Chromium and 50 nm of Gold. The metal Lift off was done by acetone immersion for 15 minutes followed by an Isopropyl alcohol (IPA) wash and N2 blow dry. The result is a uniform thin film CNT network covering the entire substrate surface. Nanodiscs were prepared using a protocol modified from Bayburt et al. 2010 and 2003^55, 56. Nanodiscs were formed at an MSP:protein:lipid ratio of 1:0.2:150. […]

Compound	real time current response [1]	current response [2]
CCC/C=C/C=O [E2-hexenal]	no clear current response	–
COC(=O)c1ccccc1O [methyl salicylate]	–	no increase in current
